Measured values published in ChEMBL document CHEMBL3045573, “Design, synthesis, and quantitative structure-activity relationship study of herbicidal analogues of pyrazolo[5,1-d][1,2,3,5]tetrazin-4(3H)ones” (2007).

Legend:
Assay type in all cases: functional
Details in all cases: read-out: GI
Echinochloa crus-galli [1] = test: Herbicidal activity against Echinochloa crus-galli (barnyard grass) assessed as inhibition of seedling growth at 10 ug/mL for 65 hr at 28 +/- 1 degC by cup test
Echinochloa crus-galli [2] = test: Herbicidal activity against Echinochloa crus-galli (barnyard grass) assessed as inhibition of seedling growth at 100 ug/mL for 65 hr at 28 +/- 1 degC by cup test
[3] = tested on: Brassica rapa subsp. oleifera; test: Herbicidal activity against Brassica rapa subsp. oleifera assessed as inhibition of root growth of rape seed at 10 ug/mL for 65 hr at 28 +/- 1 degC by root test
[4] = tested on: Brassica rapa subsp. oleifera; test: Herbicidal activity against Brassica rapa subsp. oleifera assessed as inhibition of root growth of rape seed at 100 ug/mL for 65 hr at 28 +/- 1 degC by root test

SMILES | inhibition of growth at 10 µg/mL (Echinochloa crus-galli [1]) | inhibition of growth at 100 µg/mL (Echinochloa crus-galli [2]) | inhibition of growth at 10 µg/mL [3] | inhibition of growth at 100 µg/mL [4]
CCOC(=O)c1c(SC)nn2c(=O)n(-c3cc(OC(C)C)c(Cl)cc3F)nnc12 | 0% | 20% | 0% | 13%
CCCOc1cc(-n2nnc3c(C(=O)OCC)c(C)nn3c2=O)c(F)cc1Cl | 0% | 18% | 0% | 0%
CCOC(=O)c1c(C(F)(F)F)nn2c(=O)n(-c3c(Cl)cc(C(F)(F)F)cc3Cl)nnc12 | 0% | 15% | 2% | 22%
CCOC(=O)c1c(C(F)(F)F)nn2c(=O)n(-c3ccc(C(F)(F)F)cc3)nnc12 | 9% | 18% | 0% | 2%
CCOC(=O)c1c(C(F)(F)F)nn2c(=O)n(-c3cc(C(F)(F)F)ccc3Cl)nnc12 | 0% | 2% | 0% | 10%
CCOC(=O)c1c(C)nn2c(=O)n(-c3ccc(C(F)(F)F)cc3)nnc12 | 0% | 10% | 82% | 90%
CCOC(=O)c1c(C)nn2c(=O)n(-c3ccccc3C(F)(F)F)nnc12 | 0% | 6% | 5% | 86%
CCOC(=O)c1c(SC)nn2c(=O)n(-c3ccc(C(F)(F)F)cc3)nnc12 | 2% | 22% | 4% | 18%
CCOC(=O)c1c(SC)nn2c(=O)n(-c3c(Cl)cc(C(F)(F)F)cc3Cl)nnc12 | 3% | 28% | 3% | 9%
CCCOc1cc(-n2nnc3c(C(=O)OCC)c(C(F)(F)F)nn3c2=O)c(F)cc1Cl | 0% | 20% | 0% | 5%
CCOC(=O)c1c(C)nn2c(=O)n(-c3ccc(Cl)c(C(F)(F)F)c3)nnc12 | 0% | 4% | 89% | 89%
CC#COc1cc(-n2nnc3c(C(=O)OCC)c(C(F)(F)F)nn3c2=O)c(F)cc1Cl | 0% | 28% | 0% | 0%
C=CCOc1cc(-n2nnc3c(C(=O)OCC)c(C)nn3c2=O)c(F)cc1Cl | 0% | 24% | 0% | 0%
CCOC(=O)c1c(C)nn2c(=O)n(-c3c(Cl)cc(C(F)(F)F)cc3Cl)nnc12 | 0% | 22% | 4% | 25%
CCOC(=O)c1c(C)nn2c(=O)n(-c3cc(C(F)(F)F)ccc3Cl)nnc12 | 0% | 0% | 61% | 65%
CCOC(=O)c1c(C(F)(F)F)nn2c(=O)n(-c3ccccc3C(F)(F)F)nnc12 | 0% | 9% | 7% | 9%
CCOC(=O)c1c(SC)nn2c(=O)n(-c3cccc(C(F)(F)F)c3)nnc12 | 0% | 0% | 34% | 37%
C=CCOc1cc(-n2nnc3c(C(=O)OCC)c(SC)nn3c2=O)c(F)cc1Cl | 0% | 22% | 0% | 25%
CCOC(=O)c1c(SC)nn2c(=O)n(-c3ccccc3C(F)(F)F)nnc12 | 0% | 0% | 0% | 23%
C=CCOc1cc(-n2nnc3c(C(=O)OCC)c(C(F)(F)F)nn3c2=O)c(F)cc1Cl | 0% | 16% | 0% | 2%
CC#COc1cc(-n2nnc3c(C(=O)OCC)c(SC)nn3c2=O)c(F)cc1Cl | 0% | 32% | 0% | 0%
CCOC(=O)c1c(C(F)(F)F)nn2c(=O)n(-c3ccc(Cl)c(C(F)(F)F)c3)nnc12 | 0% | 0% | 13% | 14%
CCOC(=O)c1c(SC)nn2c(=O)n(-c3cc(C(F)(F)F)ccc3Cl)nnc12 | 2% | 11% | 0% | 13%
CCOC(=O)c1c(C(F)(F)F)nn2c(=O)n(-c3cccc(C(F)(F)F)c3)nnc12 | 0% | 1% | 0% | 14%
CCOC(=O)c1c(C(F)(F)F)nn2c(=O)n(-c3ccc(Cl)cc3C(F)(F)F)nnc12 | 0% | 21% | 0% | 0%
CCOC(=O)c1c(C)nn2c(=O)n(-c3ccc(Cl)cc3C(F)(F)F)nnc12 | 6% | 14% | 0% | 63%
CCOC(=O)c1c(SC)nn2c(=O)n(-c3ccc(Cl)c(C(F)(F)F)c3)nnc12 | 0% | 26% | 22% | 24%
CCCOc1cc(-n2nnc3c(C(=O)OCC)c(SC)nn3c2=O)c(F)cc1Cl | 0% | 12% | 0% | 2%
